Data from patent publication US11116771B2, “G protein-coupled receptor (GPCR) modulation by imipridones” (Oncoceutics, Inc., priority 2016, dated 2021).
≈ marks a conversion by molar mass, not a printed value. Entries after “also recorded” stand apart in the source; their conditions may differ. Where two headings read alike, the source gives them in different places.

Key:
[1] = Rat non-GLP oral single dose study; assay type: in vivo
[2] = tested on: MOLM14 AML cells; experiment: Cell viability, MOLM14 AML cells; assay type: cell-based
[3] = tested on: Ewing's sarcoma cell lines; experiment: Anti-cancer efficacy in Ewing's sarcoma cell lines; assay type: cell-based; conditions: 16 Ewing's sarcoma cell lines (FIG. 20)
[4] = tested on: NCI60 cancer cell line panel; experiment: NCI60 cancer cell line panel; assay type: cell-based; conditions: NCI60 panel (FIG. 16)
[5] = tested on: MHH-ES-1 (Ewing's sarcoma); experiment: Cell viability, MHH-ES-1; assay type: cell-based; conditions: Homo sapiens, 5 nM-5 μM, 72 h, n=3
[6] = tested on: DRD2 (short and long isoforms); experiment: β-arrestin recruitment GPCR reporter assay, DRD2; assay type: cell-based
[7] = tested on: Staphylococcus aureus ATCC 33591; experiment: MIC by micro-broth dilution, S. aureus ATCC 33591; assay type: cell-based; conditions: ATCC33591; for MIC90: read-out: MIC90; for MIC99: read-out: MIC99
[8] = tested on: MV411 AML cells; experiment: Cell viability, MV411 AML cells; assay type: cell-based
[9] = tested on: Staphylococcus aureus ATCC 700699; experiment: MIC by micro-broth dilution, S. aureus ATCC 700699; assay type: cell-based; conditions: Staphylococcus aureus, ATCC700699, ATCC 700699 (48 hours); for MIC90: read-out: MIC90; for MIC99: read-out: MIC99
[10] = tested on: HFF (Normal Fibroblast); experiment: Cell viability, HFF normal fibroblasts
[11] = tested on: human cancer cells; experiment: Viability of human cancer cells at 72 hours post-treatment; assay type: cell-based; conditions: relative to the potency of ONC201; viability of human cancer cells at 72 hours post-treatment
[12] = tested on: K562 (CML); experiment: Cell viability, K562; assay type: cell-based; conditions: Homo sapiens, 5 nM-5 μM, 72 h, n=3
[13] = tested on: Staphylococcus aureus ATCC 29213; experiment: MIC by micro-broth dilution, S. aureus ATCC 29213; assay type: cell-based; conditions: ATCC29213; for MIC90: read-out: MIC90; for MIC99: read-out: MIC99
[14] = tested on: MRC5 lung fibroblasts and Hs27a bone marrow cells; experiment: Cell viability of normal cells treated with ONC212; assay type: cell-based; conditions: 5 nM-5 μM, 72 h (FIG. 29B)
[15] = tested on: leukemia cell lines; experiment: Anti-cancer efficacy in leukemia cell lines; assay type: cell-based; conditions: 55 leukemia cell lines regardless of subtype (FIG. 26)
[16] = target: T1, GPR132 (Homo sapiens, UniProt Q9UNW8); experiment: β-arrestin recruitment GPCR reporter assay, GPR132; assay type: cell-based
T1 sequence (Q9UNW8 1-380): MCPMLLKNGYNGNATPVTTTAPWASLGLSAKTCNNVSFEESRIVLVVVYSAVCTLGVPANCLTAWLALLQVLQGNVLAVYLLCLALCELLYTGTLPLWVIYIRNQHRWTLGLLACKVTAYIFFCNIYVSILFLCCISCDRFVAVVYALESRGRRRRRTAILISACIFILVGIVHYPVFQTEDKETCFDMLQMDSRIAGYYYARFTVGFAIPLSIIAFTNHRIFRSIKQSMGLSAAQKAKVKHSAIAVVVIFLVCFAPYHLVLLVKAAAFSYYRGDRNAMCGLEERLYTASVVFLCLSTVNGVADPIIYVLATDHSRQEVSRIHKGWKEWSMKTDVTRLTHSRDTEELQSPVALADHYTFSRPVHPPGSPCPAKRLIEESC

[17] = Mouse tolerability (non-GLP oral single dose / MTD study); assay type: in vivo
Protocol: ONC212 25 mg/kg represents NOAEL in mouse and rat non-GLP oral single dose studies which is also the efficacious dose in mouse xenograft studies. […].
Dual targeting of DRD2/3 and GPR132/91 represents a novel strategy for anti-cancer efficacy without toxicity. […] […]. […] […].

[18] = tested on: human fetal lung fibroblast (MRC-5) cells; conditions: MRC5; nanomolar concentrations (FIG. 22)
[19] = tested on: HL60; experiment: Cell viability, HL60 AML cell line; assay type: cell-based; conditions: Homo sapiens, HL-60, 72 h
[20] = tested on: HCT116 cells; experiment: Anticancer efficacy in HCT116 cells; assay type: cell-based, human
[21] = tested on: human colon cancer xenograft; experiment: Human colon cancer xenograft in mice; assay type: in vivo; conditions: single dose, oral or intraperitoneal (FIG. 24)
[22] = tested on: MV411 AML xenograft; experiment: MV411 AML xenograft model; assay type: in vivo, athymic nude mice
[23] = Staphylococcus aureus (ATCC 33591), methicillin resistant, read-out: MIC
[24] = Staphylococcus aureus, ATCC 33591, 24 hours
[25] = Staphylococcus aureus, ATCC 33591, 24 hours, read-out: MIC95
[26] = Staphylococcus aureus, ATCC 33591, 24 hours, read-out: MIC, Visual
[27] = wild type Staphylococcus aureus (ATCC 29213), read-out: MIC
[28] = Staphylococcus aureus, ATCC 29213, 24 hours
[29] = Staphylococcus aureus, ATCC 29213, 24 hours, read-out: MIC95
[30] = Staphylococcus aureus, ATCC 29213, 24 hours, read-out: MIC, Visual

SMILES | anti-cancer efficacy across tumor types [4] | GPCR activity, DRD2 [6] | MIC [7, 23] [µg/mL] | MIC90 [7, 24] [µg/mL] | MIC [7, 25] [µg/mL] | MIC99 [7, 24] [µg/mL] | MIC [7, 26] [µg/mL] | MIC90 [9] [µg/mL] | MIC ([9]; read-out: MIC95) [µg/mL] | MIC99 [9] [µg/mL] | MIC ([9]; read-out: MIC, Visual) [µg/mL] | MIC [13, 27] [µg/mL] | MIC90 [13, 28] [µg/mL] | MIC [13, 29] [µg/mL] | MIC99 [13, 28] [µg/mL] | MIC [13, 30] [µg/mL] | other results
O=C1C2=C(CCN(Cc3ccccc3)C2)N2CCN=C2N1Cc1ccc(F)cc1F [ONC206] | demonstrated anti-cancer efficacy | improved DRD2 antagonism | 12.5 (≈ 30.6 µM) | 12.5 (≈ 30.6 µM) | 25 (≈ 61.2 µM) | > 100 | 12.5 (≈ 30.6 µM) | 12.5 (≈ 30.6 µM) | 12.5 (≈ 30.6 µM) | 25 (≈ 61.2 µM) | 12.5 (≈ 30.6 µM) | 6.25 (≈ 15.3 µM) | 6.25 (≈ 15.3 µM) | 6.25 (≈ 15.3 µM) | 6.25 (≈ 15.3 µM) | 6.25 (≈ 15.3 µM) | NOAEL ([1]; rat non-GLP oral single dose study): 125 mg/kg; IC50 ([2]; Homo sapiens, MOLM-14, 5 nM-5 μM, 72 h, n=3): 270 nM; anti-cancer efficacy [3]: nanomolar range in 14 out of 16; also recorded: superior efficacy compared to ONC201 in all cell lines; IC50 [5]: 610 nM; IC50 ([8]; Homo sapiens, MV4-11, MV411, 5 nM-5 μM, 72 h, n=3): 200 nM; fold improvement compared to ONC201 in in vitro potency ([8]; cell lines of Table 12): up to 20 fold; IC50 ([10]; Homo sapiens, Fibroblast, 72 h): > 5000 nM; in vitro toxicity to normal cells ([10]; Table 12): no in vitro toxicity to normal cells at therapeutic doses; Relative Potency* [11]: A (A Indicates a potency increase of >2-fold of ONC201); IC50 [12]: 220 nM
O=C1C2=C(CCN(Cc3ccccc3)C2)N2CCN=C2N1Cc1ccc(C(F)(F)F)cc1 [ONC212] | demonstrated anti-cancer efficacy | does not engage DRD2 | 3.13 (≈ 7.11 µM) | 3.13 (≈ 7.11 µM) | 6.25 (≈ 14.2 µM) | 100 (≈ 227 µM) | 3.12 (≈ 7.09 µM) | 6.25 (≈ 14.2 µM) | 12.5 (≈ 28.4 µM) | 12.5 (≈ 28.4 µM) | 12.5 (≈ 28.4 µM) | 3.13 (≈ 7.11 µM) | 3.13 (≈ 7.11 µM) | 3.13 (≈ 7.11 µM) | 3.13 (≈ 7.11 µM) | 3.12 (≈ 7.09 µM) | toxicity to normal cells [14]: non-toxic to normal cells at efficacious concentrations; NOAEL ([1]; rat, in vivo, po): 25 mg/kg; cell viability after 8 hr exposure ([2]; ONC212 at 250 nM, viability determined at 96 h (FIG. 29C)): robust reduction in cell viability; anti-cancer efficacy [15]: nanomolar range; GPCR activity, GPR132 [16]: highly selective agonist; NOAEL ([17]; in vivo, mouse, non-GLP oral single dose study / MTD study): 25 mg/kg; well tolerated dose ([17]; mice): ≥ 225 mg/kg; cell death in normal cells [18]: not normal cells; fold more potent compared to ONC201 ([8]; AML cell lines in vitro (Table 11)): up to 400 fold; efficacy in AML cells resistant to standard of care cytarabine ([8]; MV411, 5 nM-5 μM, 24 h (FIG. 29A)): efficacious; cell viability after 8 hr exposure ([8]; MV411, ONC212 at 250 nM, viability determined at 96 h (FIG. 29C)): robust reduction in cell viability; IC50 [19]: 210 nM; cell death in cancer cells ([20]; HCT116, nanomolar concentrations (FIG. 22)): induced cell death; IC50 ([20]; Homo sapiens, HCT-116, HCT116 cells): 10 nM; tumor volume compared to vehicle-treated control [21]: significant reduction of tumor volume; body weight loss or gross observations ([22]; all ONC212 regimens (FIG. 30C)): None of these ONC212 administration regimens were associated with body weight loss; leukemia xenograft tumor growth ([22]; biweekly dosing with 25 mg/kg, oral (FIG. 30B)): not efficacious; leukemia xenograft tumor growth ([22]; oral weekly administration, ONC212 50 mg/kg, ONC201 at similar doses (FIG. 30A)): significantly reduced; leukemia xenograft tumor growth ([22]; weekly/biweekly dosing with 5 mg/kg, oral (FIG. 30B)): not efficacious
